ChEMBL document CHEMBL1201862, “PubChem BioAssay data set” (2004)
Activity calls are given as the source filed them.

Tests used:
[1] = insulin promoter down-regulators in MIN6 cells, imaging, high-content screening, mouse beta cells (AID 1628); format: functional
[2] = cytotoxicity in MIN6 insulinoma cells, dose response, cytotoxicity control, cell-based, mouse insulinoma (AID 2122); format: functional;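 further: confirmatory high-throughput counterscreen run to flag cytotoxic compounds; mouse MIN-6 beta cells carrying an insulin promoter eGFP reporter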
[3] = NIH-3T3 fibroblast cytotoxicity, dose response, cytotoxicity control, cell-based, fluorescence, Alamar Blue, secondary assay (AID 2327); format: functional;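 further: NIH-3T3 mouse fibroblasts cultured with fluconazole at 8 µg/mL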
Leucine aminopeptidase = molecular target: T1, Leucine aminopeptidase (Plasmodium falciparum 3D7, UniProt Q8IL11); assay: P. falciparum M17LAP inhibitors, primary screen, biochemical, fluorogenic H-Leu-NHMec substrate, 1536-well (AID 1619); format: functional
T1 sequence (Q8IL11 whole entry): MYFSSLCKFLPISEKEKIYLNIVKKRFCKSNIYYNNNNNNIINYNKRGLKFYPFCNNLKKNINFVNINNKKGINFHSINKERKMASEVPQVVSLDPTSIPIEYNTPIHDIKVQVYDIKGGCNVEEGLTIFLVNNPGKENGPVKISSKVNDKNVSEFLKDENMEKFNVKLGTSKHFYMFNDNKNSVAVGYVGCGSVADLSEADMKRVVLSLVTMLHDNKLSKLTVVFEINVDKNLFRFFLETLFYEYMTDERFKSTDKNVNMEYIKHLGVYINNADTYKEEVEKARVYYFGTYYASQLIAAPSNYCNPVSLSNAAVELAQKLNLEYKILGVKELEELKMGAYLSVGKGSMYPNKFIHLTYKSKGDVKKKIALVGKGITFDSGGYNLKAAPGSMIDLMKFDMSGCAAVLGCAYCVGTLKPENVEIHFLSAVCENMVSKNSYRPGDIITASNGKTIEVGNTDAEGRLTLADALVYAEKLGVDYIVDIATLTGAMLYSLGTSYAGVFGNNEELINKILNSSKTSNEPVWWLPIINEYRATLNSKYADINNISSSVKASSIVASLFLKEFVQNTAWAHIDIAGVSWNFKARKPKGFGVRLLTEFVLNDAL

[4] = C. albicans growth with fluconazole, confirmation, fluorescence, retest (AID 2467); format: functional, cell-based
[5] = molecular target: T2, Short transient receptor potential channel 4 (Mus musculus, UniProt Q9QUQ5); assay: mouse TRPC4 channel activators, dose response, cell-based, HEK293 TRPC4/mu-opioid, Fluo-4 calcium (AID 434937); format: functional
T2 sequence (Q9QUQ5 whole entry): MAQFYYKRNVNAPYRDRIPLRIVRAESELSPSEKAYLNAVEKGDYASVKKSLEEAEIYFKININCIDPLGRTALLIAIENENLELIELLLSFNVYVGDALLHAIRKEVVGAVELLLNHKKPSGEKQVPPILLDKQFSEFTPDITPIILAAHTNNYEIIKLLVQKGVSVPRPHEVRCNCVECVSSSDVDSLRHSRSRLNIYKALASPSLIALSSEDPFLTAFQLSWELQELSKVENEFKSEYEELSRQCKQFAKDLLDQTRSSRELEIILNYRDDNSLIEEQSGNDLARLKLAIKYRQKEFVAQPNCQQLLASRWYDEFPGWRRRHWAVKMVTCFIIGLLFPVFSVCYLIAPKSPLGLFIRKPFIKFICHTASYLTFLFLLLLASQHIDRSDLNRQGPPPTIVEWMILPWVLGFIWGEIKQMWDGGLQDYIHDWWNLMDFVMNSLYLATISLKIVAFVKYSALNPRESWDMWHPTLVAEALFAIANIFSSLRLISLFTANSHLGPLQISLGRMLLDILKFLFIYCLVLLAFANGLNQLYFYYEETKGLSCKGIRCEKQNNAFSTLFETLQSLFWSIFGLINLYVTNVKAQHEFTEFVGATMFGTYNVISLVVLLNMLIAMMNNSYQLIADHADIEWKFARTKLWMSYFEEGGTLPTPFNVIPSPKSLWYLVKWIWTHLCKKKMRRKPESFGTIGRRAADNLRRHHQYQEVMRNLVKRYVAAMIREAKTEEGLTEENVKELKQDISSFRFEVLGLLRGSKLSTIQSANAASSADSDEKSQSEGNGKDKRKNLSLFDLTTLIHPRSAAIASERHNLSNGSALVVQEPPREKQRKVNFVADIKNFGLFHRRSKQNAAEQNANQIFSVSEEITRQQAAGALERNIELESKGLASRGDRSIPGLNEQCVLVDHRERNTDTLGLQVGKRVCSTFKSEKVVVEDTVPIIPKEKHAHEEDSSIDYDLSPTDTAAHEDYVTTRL

[6] = molecular target: Heat shock protein HSP 90-alpha (Homo sapiens, UniProt P07900); format: functional, organism-based
[7] = molecular target: T3, High affinity choline transporter 1 (Homo sapiens, UniProt Q9GZV3); assay: CHT inhibitors, dose response, cell-based, 5-point CRC, membrane potential dye (AID 504840); format: functional
T3 sequence (Q9GZV3 whole entry): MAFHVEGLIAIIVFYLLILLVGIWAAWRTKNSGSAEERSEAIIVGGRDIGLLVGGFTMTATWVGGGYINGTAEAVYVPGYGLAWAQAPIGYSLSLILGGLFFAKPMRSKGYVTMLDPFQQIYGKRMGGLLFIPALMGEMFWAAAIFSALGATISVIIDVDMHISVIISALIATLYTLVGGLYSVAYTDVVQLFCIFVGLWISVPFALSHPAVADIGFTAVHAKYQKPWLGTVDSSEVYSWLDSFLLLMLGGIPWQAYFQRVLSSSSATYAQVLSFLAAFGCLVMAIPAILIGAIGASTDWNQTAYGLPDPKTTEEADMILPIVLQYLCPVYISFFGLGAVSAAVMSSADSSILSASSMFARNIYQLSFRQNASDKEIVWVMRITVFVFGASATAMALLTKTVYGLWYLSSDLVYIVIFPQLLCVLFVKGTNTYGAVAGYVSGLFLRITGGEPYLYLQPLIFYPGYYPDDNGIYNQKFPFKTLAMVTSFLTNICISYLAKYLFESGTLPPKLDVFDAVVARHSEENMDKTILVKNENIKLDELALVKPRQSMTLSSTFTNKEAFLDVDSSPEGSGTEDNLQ

Vero [8] = assay: cells; format: functional, cell-based; details: Chlorocebus sabaeus
Vero [9] = assay: cells; format: functional; details: Chlorocebus sabaeus
[10] = molecular target: Peroxisome proliferator-activated receptor gamma/Nuclear receptor coactivator 2 (Homo sapiens, UniProt P37231); format: functional;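 further: agonist potency for raising coactivator recruitment to the receptor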
[11] = molecular target: Peroxisome proliferator-activated receptor gamma/Nuclear receptor coactivator 1 (Homo sapiens, UniProt P37231); format: functional;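 further: agonist potency as compounds enhance coactivator SRC-1 recruitment to PPARgamma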
Peroxisome proliferator-activated receptor gamma/Nuclear receptor coactivator 1, sequence (P37231 whole entry): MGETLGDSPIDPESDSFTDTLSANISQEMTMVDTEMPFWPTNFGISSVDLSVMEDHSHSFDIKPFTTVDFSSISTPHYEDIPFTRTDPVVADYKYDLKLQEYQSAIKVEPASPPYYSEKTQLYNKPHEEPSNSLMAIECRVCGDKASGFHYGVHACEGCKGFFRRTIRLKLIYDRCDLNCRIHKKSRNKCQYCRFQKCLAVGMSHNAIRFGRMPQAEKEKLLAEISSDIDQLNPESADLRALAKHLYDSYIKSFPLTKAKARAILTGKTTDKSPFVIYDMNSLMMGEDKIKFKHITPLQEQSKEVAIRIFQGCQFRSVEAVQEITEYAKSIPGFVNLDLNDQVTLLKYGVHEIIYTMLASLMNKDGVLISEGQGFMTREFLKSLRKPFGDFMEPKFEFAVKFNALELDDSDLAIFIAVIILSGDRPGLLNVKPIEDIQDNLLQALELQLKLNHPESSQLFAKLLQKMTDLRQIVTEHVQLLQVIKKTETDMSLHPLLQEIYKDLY
Peroxisome proliferator-activated receptor gamma/Nuclear receptor coactivator 1, sequence (Q15788 whole entry, further chain): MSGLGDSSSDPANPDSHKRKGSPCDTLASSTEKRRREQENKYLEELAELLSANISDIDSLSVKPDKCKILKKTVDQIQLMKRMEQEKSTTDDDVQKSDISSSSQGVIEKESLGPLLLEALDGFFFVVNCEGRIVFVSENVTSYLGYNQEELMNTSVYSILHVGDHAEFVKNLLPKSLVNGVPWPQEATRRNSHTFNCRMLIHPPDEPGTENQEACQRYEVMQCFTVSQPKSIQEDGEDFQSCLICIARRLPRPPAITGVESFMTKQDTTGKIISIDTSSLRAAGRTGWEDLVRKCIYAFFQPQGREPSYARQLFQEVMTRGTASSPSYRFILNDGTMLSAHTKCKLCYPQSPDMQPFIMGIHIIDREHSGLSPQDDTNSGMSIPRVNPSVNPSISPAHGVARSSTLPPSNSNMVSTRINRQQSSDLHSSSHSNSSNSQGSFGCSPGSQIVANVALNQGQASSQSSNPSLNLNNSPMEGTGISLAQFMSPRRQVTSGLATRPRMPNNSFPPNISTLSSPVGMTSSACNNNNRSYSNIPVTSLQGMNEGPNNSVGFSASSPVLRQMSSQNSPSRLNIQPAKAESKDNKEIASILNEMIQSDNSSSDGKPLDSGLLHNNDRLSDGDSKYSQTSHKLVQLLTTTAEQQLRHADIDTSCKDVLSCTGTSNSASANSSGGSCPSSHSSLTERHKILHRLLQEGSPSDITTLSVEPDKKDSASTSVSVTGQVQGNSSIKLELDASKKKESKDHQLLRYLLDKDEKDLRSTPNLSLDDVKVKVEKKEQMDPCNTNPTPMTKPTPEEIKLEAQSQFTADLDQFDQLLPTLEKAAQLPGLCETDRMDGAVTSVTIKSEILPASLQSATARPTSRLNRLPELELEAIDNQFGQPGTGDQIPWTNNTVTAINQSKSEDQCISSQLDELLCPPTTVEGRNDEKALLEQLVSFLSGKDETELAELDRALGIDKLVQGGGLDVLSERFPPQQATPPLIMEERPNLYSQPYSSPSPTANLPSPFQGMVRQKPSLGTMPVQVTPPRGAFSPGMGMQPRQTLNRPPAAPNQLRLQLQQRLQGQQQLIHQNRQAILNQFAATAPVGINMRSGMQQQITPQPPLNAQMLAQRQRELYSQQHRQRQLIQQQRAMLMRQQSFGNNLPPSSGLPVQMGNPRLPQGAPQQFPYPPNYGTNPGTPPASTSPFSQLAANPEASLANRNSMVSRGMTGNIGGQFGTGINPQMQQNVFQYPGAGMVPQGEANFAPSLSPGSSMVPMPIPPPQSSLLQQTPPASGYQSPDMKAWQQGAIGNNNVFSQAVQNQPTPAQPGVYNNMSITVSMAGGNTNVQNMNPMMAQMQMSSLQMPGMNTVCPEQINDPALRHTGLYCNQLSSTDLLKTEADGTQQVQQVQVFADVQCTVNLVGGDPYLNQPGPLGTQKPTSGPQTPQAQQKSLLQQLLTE

[12] = molecular target: Peroxisome proliferator-activated receptor gamma/Nuclear receptor coactivator 3 (Homo sapiens, UniProt P37231); format: functional;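 further: agonist potency for raising coactivator recruitment to the receptor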
[13] = growth suppression of PTEN-null colon cells, dose response, cell-based, HCT116 PTEN knockout (AID 1047); format: functional;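 further: HCT116 colon tumor cells with PTEN knocked out; cells exposed to compound for 60 hours before readout; potency for loss of cell viability measured by luminescence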
[14] = growth suppression of beta-catenin-knockout colon cells, dose response, cell-based, HCT116, human colon tumor (AID 1045); format: functional;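 further: HCT116 colon tumor cells with beta catenin knocked out; cells exposed to compound for 60 hours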
Cytochrome P450 1A2 = molecular target: T4, Cytochrome P450 1A2 (Homo sapiens, UniProt P05177);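 further: PubChem cytochrome P450 panel assay, CYP1A2 panel member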
T4 sequence (P05177 whole entry): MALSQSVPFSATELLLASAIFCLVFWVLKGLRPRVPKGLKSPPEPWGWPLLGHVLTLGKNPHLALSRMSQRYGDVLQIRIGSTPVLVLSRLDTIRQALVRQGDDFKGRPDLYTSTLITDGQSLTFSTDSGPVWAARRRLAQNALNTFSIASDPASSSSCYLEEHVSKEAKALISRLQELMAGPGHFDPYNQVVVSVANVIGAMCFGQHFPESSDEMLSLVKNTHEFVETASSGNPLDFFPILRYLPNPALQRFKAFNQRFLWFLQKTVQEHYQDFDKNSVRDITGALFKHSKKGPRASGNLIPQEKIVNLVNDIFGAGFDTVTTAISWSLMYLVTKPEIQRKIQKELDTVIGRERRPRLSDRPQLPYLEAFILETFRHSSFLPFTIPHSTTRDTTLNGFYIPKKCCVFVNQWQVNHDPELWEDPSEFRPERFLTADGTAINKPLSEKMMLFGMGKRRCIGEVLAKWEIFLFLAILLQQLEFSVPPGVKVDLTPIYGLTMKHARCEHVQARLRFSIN

Cytochrome P450 2C9 = Cytochrome P450 2C9 (Homo sapiens, UniProt P11712)
Cytochrome P450 2C9, sequence (P11712 whole entry): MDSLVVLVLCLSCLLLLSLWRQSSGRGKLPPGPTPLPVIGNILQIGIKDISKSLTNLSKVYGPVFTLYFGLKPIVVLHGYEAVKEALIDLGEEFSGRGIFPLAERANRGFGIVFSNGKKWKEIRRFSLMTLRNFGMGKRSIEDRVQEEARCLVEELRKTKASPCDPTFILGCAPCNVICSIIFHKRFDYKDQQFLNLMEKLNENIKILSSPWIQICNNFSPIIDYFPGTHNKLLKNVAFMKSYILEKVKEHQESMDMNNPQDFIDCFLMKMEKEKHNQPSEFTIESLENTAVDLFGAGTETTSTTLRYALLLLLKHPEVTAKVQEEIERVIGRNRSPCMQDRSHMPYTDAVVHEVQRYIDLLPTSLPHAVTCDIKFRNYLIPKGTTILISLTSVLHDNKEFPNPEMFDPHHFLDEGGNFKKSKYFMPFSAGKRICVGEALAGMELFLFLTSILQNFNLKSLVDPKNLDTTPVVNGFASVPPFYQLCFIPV

HEK293 = assay: inhibitors of LMP1-driven NF-kB reporter, dose response, cell-based, HEK293, luciferase, cherry-pick (AID 588343); format: functional; details: Homo sapiens
Cytochrome P450 2D6 = Cytochrome P450 2D6 (Homo sapiens, UniProt P10635);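 further: CYP2D6 member of a cytochrome P450 panel assay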
Cytochrome P450 2D6, sequence (P10635 whole entry): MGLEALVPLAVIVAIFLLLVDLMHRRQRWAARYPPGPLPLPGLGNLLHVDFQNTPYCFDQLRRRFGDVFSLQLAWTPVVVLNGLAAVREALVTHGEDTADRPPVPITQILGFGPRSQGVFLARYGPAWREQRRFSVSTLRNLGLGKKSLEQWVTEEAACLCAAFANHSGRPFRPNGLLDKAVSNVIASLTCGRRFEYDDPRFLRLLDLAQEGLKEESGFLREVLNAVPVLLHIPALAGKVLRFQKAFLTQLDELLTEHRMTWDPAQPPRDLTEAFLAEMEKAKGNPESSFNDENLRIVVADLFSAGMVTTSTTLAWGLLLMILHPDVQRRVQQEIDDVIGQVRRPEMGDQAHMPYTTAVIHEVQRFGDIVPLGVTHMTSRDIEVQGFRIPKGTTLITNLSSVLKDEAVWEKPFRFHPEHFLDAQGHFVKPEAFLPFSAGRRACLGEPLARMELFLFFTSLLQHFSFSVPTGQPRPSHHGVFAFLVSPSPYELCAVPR

Cytochrome P450 3A4 = Cytochrome P450 3A4 (Homo sapiens, UniProt P08684);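 further: CYP3A4 tested as one member of a cytochrome P450 panel screen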
Cytochrome P450 3A4, sequence (P08684 whole entry): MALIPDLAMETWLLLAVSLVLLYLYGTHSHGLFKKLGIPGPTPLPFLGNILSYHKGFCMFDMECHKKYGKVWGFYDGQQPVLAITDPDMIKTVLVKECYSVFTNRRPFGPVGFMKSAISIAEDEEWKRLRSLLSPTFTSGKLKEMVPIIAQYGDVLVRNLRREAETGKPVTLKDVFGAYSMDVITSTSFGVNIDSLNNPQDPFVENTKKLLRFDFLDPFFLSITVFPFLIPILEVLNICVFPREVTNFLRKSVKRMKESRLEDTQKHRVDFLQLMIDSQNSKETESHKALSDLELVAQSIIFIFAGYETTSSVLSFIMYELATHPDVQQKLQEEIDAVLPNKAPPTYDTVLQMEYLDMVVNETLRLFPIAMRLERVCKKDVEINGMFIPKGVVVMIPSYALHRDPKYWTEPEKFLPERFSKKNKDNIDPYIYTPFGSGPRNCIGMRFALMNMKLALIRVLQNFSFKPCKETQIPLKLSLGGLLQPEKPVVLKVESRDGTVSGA

**Q.** For Cc1ccccc1/N=C/C=C1\N(C)c2ccccc2C1(C)C, which IC50 [1] is on record?
**A.** Its IC50 is 2.44 µM (active).

**Q.** What about the IC50 [2] of the same compound?
**A.** The IC50 was 5.61 µM (active).

**Q.** Which results are given for Cc1cccc(C(=O)NC(=S)NNC(=O)Cc2ccccc2)c1?
**A.** EC50 [3]: > 150 µM (inactive); IC50 (Leucine aminopeptidase): 56.6 µM (active); EC50 [4]: 1.14 µM (active); EC50 [5]: 4.22 µM (active); AC50 [6]: 4.66 µM (active); IC50 [7]: 13.2 µM (active); IC50 (Vero [8]): 22.7 µM (active); CC50 (Vero [9]): > 25 µM (active)

**Q.** What does the source list for CCOc1ccc(-c2nn(-c3ccccc3)cc2/C=C2\SC(N)=NC2=O)cc1C?
**A.** EC50 [10]: > 79.4 µM (not active); EC50 [11]: > 79.4 µM (not active); EC50 [12]: > 79.4 µM (not active); EC50 [13]: 8.6 µM (active); EC50 [14]: 8.58 µM (active); AC50 (Cytochrome P450 1A2): 15.8 µM (inconclusive); AC50 (Cytochrome P450 2C9): inconclusive

**Q.** For c1ccc(CCCN2CCN(CCOC(c3ccccc3)c3ccccc3)CC2)cc1, which AC50 (HEK293) is on record?
**A.** The AC50 was 23.8 µM (active).

**Q.** Which AC50 (Cytochrome P450 2D6) does the source give for COc1ccc(C2=NOC(C(=O)N3CCCc4ccccc43)C2)cc1 (stereo unspecified) here?
**A.** The AC50 was 20 µM (inconclusive).

**Q.** And the AC50 (Cytochrome P450 3A4)?
**A.** The AC50 was 12.6 µM (inconclusive).

**Q.** What about the AC50 (Cytochrome P450 2C9) of the same compound?
**A.** Its AC50 is “inconclusive”.
